Data: patent publication US10281476B2, “Methods to identify modulators of RyR calcium channels” (REGENTS OF THE UNIVERSITY OF MINNESOTA, priority 2013, dated 2019)
Where no end group is shown, it is not given here.

Legend:
intact cardiac myocytes = assay: Spontaneous Ca2+ waves (SCW) in intact cardiac myocytes; assay type: cell-based, rat
Procedure: Intact cardiomyocytes were loaded with Fluo-4 AM (5 μmol/L, Molecular Probes) for 15 min in NT solution (in mM): NaCl 140, KCl 4, MgCl2 1, CaCl2 2, glucose 10, HEPES 5, pH 7.4. Fluo-4 AM was excited at 488 nm and emission was recorded using a 500-530 nm bandpass filter. Ca^2+sparks were recorded after field stimulation at 1 Hz, and caffeine (10mmol/L) was rapidly perfused for assessing the SR Ca^2+content. Both Ca^2+sparks and SR Ca^2+content were recorded by using a laser scanning confocal microscope (RADIANCE2000™ MP, Bio-Rad, UK). Data were analyzed using SparkMaster, an automated analysis program that allows rapid and reliable spark analysis (Picht et al., J. Am J Physiol Cell Physiol. 2007;293:C1073-C1081). Spontaneous Ca^2+waves were recorded using a BZ9000 fluorescence digital microscope (Keyence, Japan), after 10 sec from field electric stimulation at 1,2,3,4 and 5 Hz, as described previously (Fukuda et al., Biochem Biophys Res Commun. 2014;448:1-7).

[1] = test system: intracellular reactive oxygen species (ROS); assay: Intracellular ROS by H2DCFDA fluorescence; assay type: cell-based, rat; conditions: 50 μmol/L H2O2, with or without dantrolene pretreatment
Procedure: Intracellular reactive oxygen species (ROS) formation was measured in rat cardiac myocytes using a fluorescent probe, 5-(and -6)-chloromethyl-2′,7′-dichlorodihydrofluoroscein diacetate (H2DCFDA, 10 μmol/L) (Terentyev et al., Circ Res. 2008; 103:1466-1472). This assay is widely used as a reliable method for the measurement of intracellular ROS such as hydrogen peroxide, hydroxyl radicals, and hydroperoxide. The H2DCFDA dye was excited with the 488 nm and emission was collected at 500-530 nm. The content of free thiols in RyR2 was determined based on the monobromobimane (mBB, Calbiochem) fluorescence intensity, as previously described (Terentyev et al., Circ Res. 2008; 103:1466-1472; Ho et al., J Physiol. 2011; 19:4697-4708). In brief, myocytes were incubated with mBB for 1 hr. Myocytes were then lysed in lysis buffer and loaded on 6% SDS-PAGE gels. The fluorescence emission intensity of the RyR2-bound mBB was measured at 482 nm by exciting at 382 nm. mBB fluorescence was normalized to the RyR2 amount, which was determined using quantitative densitometry of Coomassie Blue-stained gels.
To monitor intracellular ROS level, we used H2DCFDA (10 μmol/L). […] To assess whether dantrolene can attenuate the extent of RyR2 thiol modification in H2O2-treated myocytes, we used a monobromobimane (mBB) fluorescence labeling assay.

RyR2 = RyR2 (Rattus norvegicus, UniProt B0LPN4); assay: Fluorescent FKBP12.6 binding at the Z-line of permeabilized myocytes; parameters: These fluorescent proteins were added to saponin-permeabilized myocytes with or without pre-equilibration with saturating DPc10 concentration; endogenous in cells; host or cells: saponin-permeabilized rat ventricular myocytes
Procedure: These fluorescent proteins were added to saponin-permeabilized myocytes with or without pre-equilibration with saturating DPc10 concentration. […] We also did this with high [CaM] (500 nmol/L) that saturates RyR2 with CaM under control conditions (without DPc10; FIG. 17C). […] To test whether DPc10 and CaM bind at the same or nearby RyR2 sites, we measured FRET between CaM and DPc10.
FKBP12.6 can bind to and stabilize RyR2 channel gating, but details are controversial (Bers et al., Circ Res. 2012; 110:796-799). We measured the effect of H2O2 on FKBP12.6-RyR2 binding affinity in saponin-permeabilized myocytes using F-FKBP (Yang et al., Circ Res. 2014; 114:295-306; Cornea et al., Proc Natl Acad Sci USA. 2009; 106:6128-6133; Guo et al., Circ Res. 2010; 106:1743-1752; Guo et al., Biophys J. 2011; 101:2170-2177; Cornea et al., J Biol Chem. 2010; 285:19219-19226). […] We used 1 nmol/L F-FKBP (the its Kd) (Guo et al., Circ Res. 2010; 106:1743-1752), because at half-saturation it would be very sensitive to either an increase or decrease in RyR2 binding.

[2] = test system: permeabilized cardiomyocytes; assay: Ca2+ sparks and SR Ca2+ content in permeabilized myocytes; assay type: cell-based, rat
Procedure: Myocytes were permeabilized with saponin (50μg/mL) for 60 seconds and placed in internal solution composed of EGTA 0.5 mmol/L; HEPES 10 mmol/L; Kaspartate 120 mmol/L; ATP 5 mmol/L; free MgCl2 1 mmol/L, reduced glutathione 10 mmol/L; and free [Ca2+] 50nmol/L (calculated using MaxChelator), creatine phosphokinase 5 U/mL, phosphocreatine 10 mmol/L, dextran 4% Fluo-4 0.025 mmol/L, pH 7.2. Ca2+sparks were recorded by a laser scanning confocal microscope (RADIANCE2000™ MP, Bio-Rad, UK) as previously described (Li et al., Circ Res, 2002; 90:309-316). Fluo-4 was excited at 488 nm and emission was recorded using 500/530 nm bandpass filter. To assess SR Ca2+content, caffeine (15 mmol/L) was rapidly perfused. Ca2+spark were analyzed as using SparkMaster (Picht et al., Am J Physiol Cell Physiol, 2007; 293:C1073-C1081).
Next, we asked whether RyR2 is activated by DPc10 and whether FKBP12.6 or CaM can prevent this. We assessed Ca^2+ sparks in permeabilized myocytes perfused with internal solution containing 50 nmol/L free Ca^2+ plus 1 μmol/L autocamtide-2-related inhibitory peptide (to inhibit CaMKII activity). Line-scan images were recorded after 3-hour incubations under control conditions and in the presence of 5 μmol/L DPc10, with or without 1 μmol/L CaM or 100 nmol/L FKBP12.6 (FIG. 14D).

[3] = DPc10 5 μmol/L, FKBP12.6 100 nmol/L, CaM 1 μmol/L

Chain of RyR2 (B0LPN4 whole entry): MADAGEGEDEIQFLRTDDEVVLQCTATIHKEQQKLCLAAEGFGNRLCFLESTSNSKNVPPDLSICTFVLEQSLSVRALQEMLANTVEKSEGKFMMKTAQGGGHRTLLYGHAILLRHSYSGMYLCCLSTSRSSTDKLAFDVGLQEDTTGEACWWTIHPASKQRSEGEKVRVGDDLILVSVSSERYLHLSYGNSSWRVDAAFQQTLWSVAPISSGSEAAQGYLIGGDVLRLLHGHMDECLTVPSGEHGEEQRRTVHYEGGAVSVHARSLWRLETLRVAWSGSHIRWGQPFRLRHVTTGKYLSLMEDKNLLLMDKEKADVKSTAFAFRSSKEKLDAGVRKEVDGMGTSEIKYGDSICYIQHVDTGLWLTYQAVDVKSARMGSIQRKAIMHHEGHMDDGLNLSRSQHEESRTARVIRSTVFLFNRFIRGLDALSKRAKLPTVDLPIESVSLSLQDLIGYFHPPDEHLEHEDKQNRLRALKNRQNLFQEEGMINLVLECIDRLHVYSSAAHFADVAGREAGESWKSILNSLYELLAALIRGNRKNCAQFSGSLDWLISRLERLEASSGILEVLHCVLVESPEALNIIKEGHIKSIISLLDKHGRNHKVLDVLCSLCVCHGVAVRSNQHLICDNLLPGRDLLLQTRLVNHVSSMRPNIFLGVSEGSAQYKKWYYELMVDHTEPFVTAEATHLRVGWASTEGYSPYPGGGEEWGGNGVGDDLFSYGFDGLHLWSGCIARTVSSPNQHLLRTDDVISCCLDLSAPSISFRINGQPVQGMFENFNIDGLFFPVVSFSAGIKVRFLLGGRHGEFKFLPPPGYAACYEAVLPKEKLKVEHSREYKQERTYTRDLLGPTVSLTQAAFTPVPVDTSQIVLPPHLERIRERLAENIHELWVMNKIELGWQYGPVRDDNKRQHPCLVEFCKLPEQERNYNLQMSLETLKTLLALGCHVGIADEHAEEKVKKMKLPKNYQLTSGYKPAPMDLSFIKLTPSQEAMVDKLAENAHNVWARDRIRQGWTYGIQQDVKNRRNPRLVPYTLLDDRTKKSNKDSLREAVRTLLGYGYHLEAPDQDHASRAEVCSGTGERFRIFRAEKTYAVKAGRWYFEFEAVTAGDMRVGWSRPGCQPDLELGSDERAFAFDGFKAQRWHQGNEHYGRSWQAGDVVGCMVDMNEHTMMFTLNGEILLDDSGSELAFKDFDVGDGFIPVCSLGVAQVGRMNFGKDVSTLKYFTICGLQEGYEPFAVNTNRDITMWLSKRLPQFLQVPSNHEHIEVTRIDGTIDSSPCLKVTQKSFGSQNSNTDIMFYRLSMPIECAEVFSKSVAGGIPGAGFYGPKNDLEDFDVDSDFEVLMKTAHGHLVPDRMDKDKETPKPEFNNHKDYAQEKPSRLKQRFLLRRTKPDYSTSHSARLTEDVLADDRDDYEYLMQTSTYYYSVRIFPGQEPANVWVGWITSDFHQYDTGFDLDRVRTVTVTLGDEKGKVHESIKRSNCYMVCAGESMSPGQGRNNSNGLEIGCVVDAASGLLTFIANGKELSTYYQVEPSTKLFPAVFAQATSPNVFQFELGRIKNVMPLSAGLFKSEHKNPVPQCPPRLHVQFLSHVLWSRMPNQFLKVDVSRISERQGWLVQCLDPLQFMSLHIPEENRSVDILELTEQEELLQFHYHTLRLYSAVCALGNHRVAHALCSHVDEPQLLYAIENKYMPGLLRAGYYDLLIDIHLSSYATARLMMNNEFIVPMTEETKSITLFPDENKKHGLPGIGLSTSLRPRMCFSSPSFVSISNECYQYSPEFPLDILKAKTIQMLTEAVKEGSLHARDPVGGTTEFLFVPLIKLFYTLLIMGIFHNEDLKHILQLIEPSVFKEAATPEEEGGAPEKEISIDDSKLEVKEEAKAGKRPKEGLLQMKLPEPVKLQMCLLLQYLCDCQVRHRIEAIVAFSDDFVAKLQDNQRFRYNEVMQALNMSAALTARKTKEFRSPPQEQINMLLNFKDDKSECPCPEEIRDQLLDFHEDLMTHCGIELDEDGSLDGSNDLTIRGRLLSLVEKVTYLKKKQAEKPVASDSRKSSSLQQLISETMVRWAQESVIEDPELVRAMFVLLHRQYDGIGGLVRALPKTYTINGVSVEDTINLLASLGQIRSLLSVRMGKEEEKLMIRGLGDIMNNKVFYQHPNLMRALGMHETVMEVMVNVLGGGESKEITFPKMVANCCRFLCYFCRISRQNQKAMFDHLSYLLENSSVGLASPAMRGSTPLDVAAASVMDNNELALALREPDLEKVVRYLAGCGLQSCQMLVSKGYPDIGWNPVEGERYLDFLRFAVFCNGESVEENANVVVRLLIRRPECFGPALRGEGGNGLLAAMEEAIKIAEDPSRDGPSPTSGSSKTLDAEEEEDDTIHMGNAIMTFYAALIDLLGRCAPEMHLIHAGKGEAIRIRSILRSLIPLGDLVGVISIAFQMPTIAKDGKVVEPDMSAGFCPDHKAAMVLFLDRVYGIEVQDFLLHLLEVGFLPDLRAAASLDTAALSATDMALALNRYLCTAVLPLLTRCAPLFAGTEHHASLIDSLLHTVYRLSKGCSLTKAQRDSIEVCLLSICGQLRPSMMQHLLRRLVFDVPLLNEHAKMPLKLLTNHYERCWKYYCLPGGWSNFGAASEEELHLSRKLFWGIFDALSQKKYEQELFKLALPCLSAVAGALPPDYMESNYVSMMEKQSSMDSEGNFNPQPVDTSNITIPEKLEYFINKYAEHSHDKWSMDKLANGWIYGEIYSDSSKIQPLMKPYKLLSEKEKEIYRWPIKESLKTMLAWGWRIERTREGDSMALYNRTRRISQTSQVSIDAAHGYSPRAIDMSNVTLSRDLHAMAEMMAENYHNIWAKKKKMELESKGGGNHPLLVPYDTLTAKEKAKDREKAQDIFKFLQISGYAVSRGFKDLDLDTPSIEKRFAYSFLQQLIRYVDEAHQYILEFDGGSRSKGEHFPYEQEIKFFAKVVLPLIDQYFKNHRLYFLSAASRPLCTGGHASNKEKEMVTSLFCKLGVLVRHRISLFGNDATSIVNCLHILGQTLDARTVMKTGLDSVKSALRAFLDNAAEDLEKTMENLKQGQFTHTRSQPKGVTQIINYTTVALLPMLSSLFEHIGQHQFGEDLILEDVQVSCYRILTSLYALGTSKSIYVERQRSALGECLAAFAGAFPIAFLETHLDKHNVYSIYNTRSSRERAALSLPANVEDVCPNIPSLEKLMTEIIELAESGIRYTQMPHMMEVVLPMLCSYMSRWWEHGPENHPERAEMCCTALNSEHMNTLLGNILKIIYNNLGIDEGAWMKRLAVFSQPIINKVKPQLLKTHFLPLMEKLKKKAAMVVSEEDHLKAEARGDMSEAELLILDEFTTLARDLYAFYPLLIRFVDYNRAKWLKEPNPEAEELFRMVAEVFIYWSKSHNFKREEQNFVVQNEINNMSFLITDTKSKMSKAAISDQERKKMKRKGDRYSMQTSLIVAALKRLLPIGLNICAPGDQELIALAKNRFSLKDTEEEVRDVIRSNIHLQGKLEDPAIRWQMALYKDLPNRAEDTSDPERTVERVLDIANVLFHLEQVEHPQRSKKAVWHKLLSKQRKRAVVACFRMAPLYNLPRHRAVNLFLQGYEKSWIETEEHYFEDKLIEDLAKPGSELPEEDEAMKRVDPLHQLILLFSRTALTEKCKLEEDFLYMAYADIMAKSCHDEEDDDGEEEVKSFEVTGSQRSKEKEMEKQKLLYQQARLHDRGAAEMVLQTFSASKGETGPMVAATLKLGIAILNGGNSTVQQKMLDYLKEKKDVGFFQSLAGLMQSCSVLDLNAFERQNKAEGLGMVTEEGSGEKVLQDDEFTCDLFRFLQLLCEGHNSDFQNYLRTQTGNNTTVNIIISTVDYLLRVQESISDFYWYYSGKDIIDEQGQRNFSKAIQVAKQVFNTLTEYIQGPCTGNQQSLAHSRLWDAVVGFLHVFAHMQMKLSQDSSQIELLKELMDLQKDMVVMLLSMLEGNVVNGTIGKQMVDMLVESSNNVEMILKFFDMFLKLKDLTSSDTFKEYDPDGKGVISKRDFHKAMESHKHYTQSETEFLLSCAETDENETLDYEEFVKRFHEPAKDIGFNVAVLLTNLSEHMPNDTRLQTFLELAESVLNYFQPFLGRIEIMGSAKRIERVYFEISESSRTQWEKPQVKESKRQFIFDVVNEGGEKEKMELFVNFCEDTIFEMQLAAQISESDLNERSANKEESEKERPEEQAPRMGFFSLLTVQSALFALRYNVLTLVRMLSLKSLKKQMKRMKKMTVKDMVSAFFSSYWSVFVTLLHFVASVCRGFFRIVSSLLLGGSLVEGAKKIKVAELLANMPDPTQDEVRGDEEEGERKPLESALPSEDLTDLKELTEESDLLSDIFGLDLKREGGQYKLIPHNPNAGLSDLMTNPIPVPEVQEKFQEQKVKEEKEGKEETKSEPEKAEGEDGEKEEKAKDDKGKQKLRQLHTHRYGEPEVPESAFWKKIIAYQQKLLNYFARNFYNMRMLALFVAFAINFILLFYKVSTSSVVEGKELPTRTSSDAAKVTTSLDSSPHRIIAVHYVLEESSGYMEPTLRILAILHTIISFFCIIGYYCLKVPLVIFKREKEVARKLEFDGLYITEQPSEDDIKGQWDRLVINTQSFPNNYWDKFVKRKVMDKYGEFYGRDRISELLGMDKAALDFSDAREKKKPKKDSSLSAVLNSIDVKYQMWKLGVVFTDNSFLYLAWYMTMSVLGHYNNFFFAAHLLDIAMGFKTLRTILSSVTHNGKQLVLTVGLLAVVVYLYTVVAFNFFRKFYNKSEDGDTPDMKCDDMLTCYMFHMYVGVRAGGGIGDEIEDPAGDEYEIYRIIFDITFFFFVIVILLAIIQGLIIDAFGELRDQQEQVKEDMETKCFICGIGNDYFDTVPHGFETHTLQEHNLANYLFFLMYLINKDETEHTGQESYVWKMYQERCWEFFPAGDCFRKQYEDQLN
Chain of RyR2 (P68106 with tags, fused parts or gaps T15C/C23A/C77I partner): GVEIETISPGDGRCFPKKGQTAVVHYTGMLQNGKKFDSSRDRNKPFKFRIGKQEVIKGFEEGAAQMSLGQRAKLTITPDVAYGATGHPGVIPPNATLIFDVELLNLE

Compound | occurrence of SCW vs. control (intact cardiac myocytes; pacing rate increased from 1 to 5 Hz) | intracellular ROS level [1] | effect on F-FKBP binding to the RyR2 (RyR2; 1 nmol/L F-FKBP, H2O2 50 μmol/L, with or without AIP or dantrolene) | effect on H2O2-induced increase in frequency of SCW (intact cardiac myocytes; dantrolene added before H2O2) | Ca2+ spark frequency (CaSpF) vs control ([2]; 5 μmol/L DPc10, 3-hour incubation, 50 nmol/L free Ca2+, 1 μmol/L AIP) | Ca2+ spark FDHM [2, 3] [ms] | Ca2+ spark FWHM [2, 3] [μm] | Ca2+ spark Peak (F/F0) [2, 3] [F/F0] | SR Ca2+ content vs control (caffeine-induced Ca2+ release) ([2]; permeabilized myocytes) | effect on FKBP12.6 binding to RyR2 (RyR2; AF488-FKBP12.6 1 nmol/L, preincubation with 5 μmol/L DPc10)
OO [H2O2, hydrogen peroxide] | significantly increased | increased | failed to alter |  |  |  |  |  |  | 
O=C1CN(/N=C/c2ccc(-c3ccc([N+](=O)[O-])cc3)o2)C(O)=N1 [dantrolene] |  | does not alter |  | suppressed |  |  |  |  |  | 
GFCPDHKAAMVLFLDRVYGIEVQDFLLHLLEVGFLP [DPc10] |  |  |  |  | robustly increased | 58.5 ± 1.00 | 1.34 ± 0.01 | 0.475 ± 0.004 | significantly lower | does not influence
